Among the data in PubChem BioAssay AID179 (DTP/NCI, 2004) are outcome, EC50 and IC50 values, retold here.

For orientation: EC50 means the concentration at which the effect is half-maximal. The IC50 is the midpoint of a concentration-inhibition curve. Read a high IC50 as a need for much substance.

The subject of this assay is CEM cells HIV-1 protection, formazan growth assay. Briefly: NCI AIDS Antiviral Assay. The note with it: for IC50: measured here: growth of uninfected CEM cells. Summed up: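 Five concentrations of each compound were applied to infected and uninfected human CEM cells. Protection from HIV-1 was judged from growth measured with a soluble formazan assay.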

Active and inactive are the calls of the source.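 The calls were made as follows: active = compounds giving half or more protection of infected cells from virus-caused growth loss, again on retest; inactive = the rest.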

As to `CC(=O)OC1C(OC(C)=O)[C@@]2(C)C(C(OC(C)=O)[C@@H]3C2C(C)C=C2OC(=O)[C@@](C)(O)[C@@]23C)[C@H]2C1[C@]1(C)C(C[C@@H]3O[C@@H]3C1OC(C)=O)C(=O)[C@@H]2O` (some centres undefined), the outcome was inactive.

In the case of `Nc1nc2c(c(-c3ccc(F)cc3)n1)COC/C2=C\c1ccc(F)cc1`, the EC50 was greater than 200 µM and the concentration for half-maximal inhibition (IC50) was 158 µM.

As to `O=Cc1ccccc1COC(=O)c1cc(C(=O)OCc2ccccc2C=O)c(C(=O)OCc2ccccc2C=O)cc1C(=O)OCc1ccccc1C=O`, the EC50 is greater than 0.759 µM and the IC50 is greater than 0.759 µM.

Take `c1cc2nnc1SCCSCCSc1ccc(nn1)SCCSCCS2`: the EC50 was greater than 200 µM and the IC50 is greater than 200 µM.

Consider `CC12C=CC(=O)C=C1CCC1C3CCC(O)(C(=O)CO)C3(C)CC(O)C12F` (centres undefined), for which the result was inactive.

For `CO[C@@H]1C[C@H]2[C@@H]3CC[C@H]([C@H](C)CO)[C@@]3(C)CC[C@@H]2[C@@]2(C)CC[C@H]3C[C@]312`, the EC50 was greater than 174 µM and the IC50 came to 81.3 µM.

Take `O=C(Nc1ccc(-c2ccco2)oc1=O)c1ccccc1`: the EC50 is greater than 200 µM and the IC50 was greater than 200 µM.

Turning to `N#CC12Cc3ccc4c(c3-c3cccc(c31)CCN2C(=O)c1ccccc1)OCO4` (centres undefined), the outcome was inactive.

As to `CCOC(=O)C(=CNC(=S)c1cccnc1)C(=O)OCC`, the EC50 is greater than 200 µM and the IC50 was determined as 17.8 µM.

In the case of `CSc1c(C#N)c(N)n(-c2ccc(C)cc2)c(=O)c1C#N`, the EC50 was greater than 83.2 µM and the IC50 was 74.1 µM.

As for `S=C(Nc1ccccn1)Nc1ccccc1Cl`, the EC50 was greater than 200 µM and the IC50 stood at 123 µM.

Take `Cc1ccc2c(c1)C(=O)CC1CC(=O)c3ccccc3C21` (centres undefined): the EC50 is greater than 200 µM and the IC50 was greater than 200 µM.

Turning to `O=c1[nH]c2c(cnn2-c2ccccc2)c(=O)n1O`, the EC50 was greater than 200 µM and the concentration for half-maximal inhibition (IC50) is greater than 200 µM.

On to `O=C(CCc1nnc2s/c(=C\c3ccc([N+](=O)[O-])cc3)c(=O)n12)Nc1ccc(Cl)c(Cl)c1`, for which the EC50 is greater than 69.2 µM and the IC50 stood at 38.9 µM.

In the case of `CCOC(=O)/N=N\C(=O)OCC`, the EC50 was greater than 200 µM and the IC50 is greater than 200 µM.

Turning to `CC(=O)C12C[C@](C#N)(N3CCCCCC3)C1C=Cc1ccccc12` (some centres undefined), the EC50 is greater than 200 µM and the half-inhibitory concentration (IC50) was greater than 200 µM.

Take `CN(C)c1ccc(-c2c(C#N)c(S)n(NS(=O)(=O)c3ccccc3)c(=O)c2C#N)cc1`: the EC50 was greater than 200 µM and the IC50 came out at 8.32 µM.

With `COc1ccc2nc(NC(=O)/C(C#N)=C/c3ccccc3)sc2c1`, the EC50 was greater than 200 µM and the IC50 came to 12 µM.

As for `O=C(N[C@H]1CCC[C@H]1C(=O)Nc1ccc(C(F)(F)F)cc1)OCc1ccccc1`, the EC50 was greater than 200 µM and the concentration for half-maximal inhibition (IC50) is greater than 200 µM.

As to `CC(C)CCC1(O)O[C@H]2C[C@H]3[C@@H]4CCC5CC(=O)C=C[C@]5(C)[C@H]4CC[C@]3(C)[C@H]2[C@@H]1C` (some centres undefined), the EC50 is greater than 151 µM and the IC50 was found to be 21.4 µM.

Take `CC(=O)OCC1OC(N2C(c3ccccc3)=CC(c3ccccc3)C(C#N)=C2S)C(OC(C)=O)C(OC(C)=O)C1OC(C)=O` (centres undefined): the EC50 is greater than 200 µM and the concentration for half-maximal inhibition (IC50) is 77.6 µM.

For the compound `O=C(O)c1ccc(CI)cc1`, the EC50 is greater than 200 µM and the IC50 came to 24.5 µM.

Regarding `C=C(CCCCCCCCC)CC(=O)SCCNC(=O)CCNC(=O)C(O)C(C)(C)COP(=O)(O)OP(=O)(O)OCC1OC(n2cnc3c(N)ncnc32)C(O)C1OP(=O)(O)O` (centres undefined), the EC50 was greater than 200 µM and the half-maximal inhibitory concentration (IC50) was 72.4 µM.

In the case of `NNC(=S)NCCNC(=S)NN`, the EC50 is greater than 200 µM and the IC50 was greater than 200 µM.

As to `COc1cc(C(O)C(O)c2cc(CN3CCOCC3)c(O)c(OC)c2)cc(CN2CCOCC2)c1O` (centres undefined), the EC50 was greater than 200 µM and the half-maximal inhibitory concentration (IC50) is greater than 200 µM.

In the case of `CCCCCCCCCCCCCCCCCCOC(COP(=O)(O)OCC1CCC(n2ccc(NC(=O)CCCCCCCCCCCCCCC)nc2=O)O1)COP(=O)(O)OCC1OC(n2cc(C)c(=O)[nH]c2=O)CC1N=[N+]=[N-]` (centres undefined), the concentration for a half-maximal effect (EC50) is 0.871 µM and the IC50 was found to be 50.1 µM.
